From publication PMC4823954, “From fighting depression to conquering tumors: a novel tricyclic thiazepine compound as a tubulin polymerization inhibitor” (Cell Death & Disease, 2016) come the findings set out here.

The test system of one series is H460. Kind of series: Cell viability assay (sulforhodamine B). The series is classed as cell-based, human. To be noted: Homo sapiens. As to the method:
(§1) All biological reagents and solvents were obtained from commercial suppliers and used as recommended. The human NSCLC cell line H460 and P-gp-overexpressing drug-resistant cell line H460TaxR were cultured in RPMI-1640 medium supplemented with 10% fetal bovine serum, 100 units/ml penicillin and […] streptomycin. The NHFB cell line NHFB was cultured in DMEM with the same supplements. All cells were maintained in a 37 °C incubator with 95% humidity and 5% CO2.
(§2) The cell viability was determined using the sulforhodamine B assay.[64] In brief, cells (4000 cells in 100 μl medium) were seeded in 96-well culture plates and incubated for 24 h. The cells were treated with the compounds or with an equal volume (0.1%) of DMSO for 72 h. The cell viability was calculated using the following formula: cell viability=Atreatment/Acontrol. The EC50 values were determined using the Sigma Plot 10.0 software package (Systat Software Inc., San Jose, CA, USA).

The subject of another series is H460TaxR. Kind of series: Cell viability assay (sulforhodamine B). The settings on record: for Resistance Folds: EC50 in H460TaxR cells divided by EC50 in H460 cells; for EC50: Homo sapiens, H460/TaxR. The series is classed as cell-based, human. The procedure:
as §1, §2

The next series deals with H460TaxR xenograft. Nature of the series: NSCLC xenograft tumor growth inhibition. The series is classed as in vivo. To be noted: H460TaxR xenografted mice; PTX 10 mg/kg i.v., four doses every other day. As to the method:
(§3) (a) The tumor volume was measured every other day. […] (b) Blood biochemical and hematological analyses.

A further series concerns H460 xenograft. Kind of series: NSCLC xenograft tumor growth inhibition. It counts as in vivo. The settings on record: H460 xenografted mice; PTX 10 mg/kg i.v., four doses every other day. The procedure: as §3
The test system of another series is NHFB. Nature of the series: Cell viability assay (sulforhodamine B). The settings on record: Fibroblast; NHFB normal human fibroblasts, 72 h. It counts as cell-based. As to the method: as §1, §2
The nature of series [1]: toxicity in xenografted mice. To be noted: end of experiment, hematoxylin–eosin.
Protocol: Five injections of vehicle and TBPT (30 or 60 mg/kg) were administered intravenously at days 1, 3, 5, 7 and 9 (arrows). Four injections of PTX (10 mg/kg) were administered intravenously at days 1, 3, 5 and 7. (a) The tumor volume was measured every other day. When the tumor volume in the solvent-treated group exceeded 1500 mm^3, the experiment was terminated. (b) Blood biochemical and hematological analyses. (c) The body weights of the mice were monitored every other day during the experiments. *P<0.05, Student's t-test with day 0, N=5
Figure 3 Histopathological examination of the major organs from TBPT or PTX-treated mouse tumor at the end of the experiments. The cross-sections of organs were stained with hematoxylin–eosin. […] The scale bars represent 50 μm and are uniform in each column
H460 and H460TaxR cells (5 × 10^6 cells in 100 μl PBS) were injected subcutaneously into the dorsal flank of each mouse. When the tumors reached volumes of 100 mm^3, the mice were divided randomly into four groups. The mice were treated every other day five times with intravenous injections of (1) vehicle (the solvent of TBPT: 60% PBS, 8% Cremophor EL, 8% EtOH, 12% poly propylene glycol and 12% PEG-400), (2) TBPT (30 mg/kg) or (3) TBPT (60 mg/kg). Another group was treated with PTX (10 mg/kg) every other day four times as the positive control. The tumor dimensions and body weights were measured every other day. The tumor volume was calculated according to a standard formula: volume=width^2 × length/2. The experiment was terminated and the mice were killed when the tumor volumes in the solvent-treated group exceeded 1500 mm^3. The mouse organs and blood were collected and used for hematoxylin–eosin staining and serum chemistry assay. TGI rates were assessed using the following formula: TGI=1− (Tt−T0)/(Ct−C0) × 100%. Tt and T0 indicate the tumor volumes of the treated group at days t and 0. Ct and C0 indicate the tumor volumes of the control group at days t and 0, respectively.
[2] abbreviates: H460TaxR(+Rev), Reversan (P-gp inhibitor).

In general, EC50 refers to the concentration that produces a half-maximal response.

Turning to `CC[C@]1(O)C[C@H]2CN(CCc3c([nH]c4ccccc34)[C@@](C(=O)OC)(c3cc4c(cc3OC)N(C=O)[C@H]3[C@@](O)(C(=O)OC)[C@H](OC(C)=O)[C@]5(CC)C=CCN6CC[C@]43[C@@H]65)C2)C1` [VCR, Vincristine], the concentration for a half-maximal effect (EC50) with H460 (NCI-H460, H460 cells) turned out to be 0.0129 ± 0.0052 µM; in the series on H460TaxR (H460TaxR cells) it was 1.01 ± 0.101 µM; in the series on H460TaxR (setting [2]), 0.0091 ± 0.0033 µM. Besides, the “Resistance Folds” value with H460TaxR turned out to be 78.4.
Turning to `COc1cccc2c1C(=O)c1c(O)c3c(c(O)c1C2=O)C[C@@](O)(C(=O)CO)C[C@@H]3O[C@H]1C[C@H](N)[C@H](O)[C@H](C)O1` [DOX, Doxorubicin], the concentration for a half-maximal effect (EC50) in the series with H460 (NCI-H460, 72 h, H460 cells, 72 h) stood at 0.11 ± 0.07 µM; in the series with H460TaxR (72 h, H460TaxR cells), 2.05 ± 0.69 µM; with H460TaxR (setting [2]), 0.17 ± 0.1 µM. The “Resistance Folds” value with H460TaxR came out at 18.6.
In the case of `CC(=O)O[C@H]1C(=O)[C@@]2(C)[C@H]([C@H](OC(=O)c3ccccc3)[C@]3(O)C[C@H](OC(=O)[C@H](O)[C@@H](NC(=O)c4ccccc4)c4ccccc4)C(C)=C1C3(C)C)[C@]1(OC(C)=O)CO[C@@H]1C[C@@H]2O` [PTX, paclitaxel], the figures for the “tumor growth inhibition, TGI” value in the series on H460TaxR xenograft and in the series with H460 xenograft were 42.0% and 66.2%, respectively. In addition, the EC50 in the series with H460 (NCI-H460, H460 cells) worked out at 0.006 ± 0.0021 µM; in the series on H460TaxR (72 h, H460TaxR cells), 0.822 µM; with H460TaxR (H460TaxR cells), 0.99 ± 0.19 µM; with H460TaxR (setting [2]) it was 0.0044 ± 0.0028 µM; with NHFB, 0.051 µM. Moreover, the “Resistance Folds” value in the series with H460TaxR is 165.0. In addition, the “histopathological examination of the major organs” value in series [1] is on record as “Hepatocyte necrosis”.
